Measurements published in patent publication US5079346A, “Gallium-labelled imaging agents” (priority 1990, dated 1992).
“And” between values parts separate entries of the source, which are not always exact repeats. Equal entries are not always repeated. Where two headings read alike, the source gives them in different places.

Tests used:
[1] = rats, cited from earlier work
[2] = Lipid solubility (reverse phase HPLC, PRP-1 column); assay type: physicochemical; details: PRP-1, pH 7
Procedure: At tracer concentrations, the aqueous chemistry has been studied using [^67 Ga] gallium citrate as the starting material. […] The ratio of ligand to ^67 Ga was determined to be […]. Presumably, under the conditions required for the preparation of the ^67 Ga complex, the cationic [^67 Ga(BAT-TECH)]^+ species is formed.

[3] = Biodistribution in rats after an iv injection; assay type: in vivo, male Sprague Dawley rats; details: for Biodistribution, Blood: blood assumed 7% of body weight; for Biodistribution, Muscle: muscle assumed 40% of body weight; for Brain/Blood: ratio
Procedure: Biodistribution of [^67 Ga]BAT-TECH was studied in male Sprague Dawley rats (200-250 g) which were allowed access to food and water ad lib. Saline solution containing [^67 Ga]BAT-TECH in a volume of 0.2 ml was injected directly into a femoral vein. Rats were sacrified (at various time points, 2, 30 and 60 min., post injection) by cardiac excision under ether anesthesia. The organs of interest were removed and counted using a well gamma counter. Percent dose per organ was calculated by comparison of tissue counts to suitably diluted aliquots of injected material. Total activities of blood and muscle were calculated assuming that they are 7% and 40% of total body weight, respectively. Each time point consists of a group of three rats.
2,9-Dimethyl-2,9-mercapto-5-(2-hydroxyphnyl)-4,7-diazadecane was labelled, and the biodistributino of the labelled compound measured, by analogous methods.

[4] = 1-octanol/0.1 m phosphate
Procedure: The partition coefficient of the [^67 Ga(BAT-TECH)]^+ complex was measured by mixing the compound with 3 g each of 1-octanol and buffer (pH 7.0 or 7.4, 0.1 M phosphate) in a test tube. This test tube was vortexed for 3 minutes at room temperature and then centrifuged for 5 minutes. Two weighed samples (0.5 g each) from the 1-octanol and buffer layers were counted in a well counter. The partition coefficient was determined by calculating the ratio of counts per minute/gram of octanol to that of buffer. Samples from the octanol layer were repartitioned until consistent partition coefficient values were obtained. The measurement was repeated three times.

[5] = literature, cited from earlier work
[6] = literature; cited from earlier work
[7] = iv, versus [^68 Ga](5-MeOSal)3 TAME

| SMILES | Biodistribution, Brain ([3]; iv, 2 min) | Biodistribution, Heart ([3]; iv, 2 min) | Biodistribution, Kidney ([3]; iv, 2 min) | Biodistribution, Liver ([3]; iv, 2 min) | Biodistribution, Lung ([3]; iv, 2 min) | Biodistribution, Skin ([3]; iv, 2 min) | Biodistribution, Spleen ([3]; iv, 2 min) | Biodistribution, Blood ([3]; iv, 2 min) | Biodistribution, Muscle ([3]; iv, 2 min) | Biodistribution, Brain ([3]; iv, 30 min) | Biodistribution, Heart ([3]; iv, 30 min) | Biodistribution, Kidney ([3]; iv, 30 min) | Biodistribution, Liver ([3]; iv, 30 min) | Biodistribution, Lung ([3]; iv, 30 min) | Biodistribution, Skin ([3]; iv, 30 min) | Biodistribution, Spleen ([3]; iv, 30 min) | Biodistribution, Blood ([3]; iv, 30 min) | Biodistribution, Muscle ([3]; iv, 30 min) | also measured |
| --- | --- | --- | --- | --- | --- | --- | --- | --- | --- | --- | --- | --- | --- | --- | --- | --- | --- | --- | --- |
| COc1ccc2c(c1)C=NCC1(C)CN=Cc3cc(OC)ccc3[O][68Ga]([O]2)[O]c2ccc(OC)cc2C=NC1 [[^68 Ga](5-MeOSal)3 TAME, Gallium-68 1,1,1-tris (5-methoxysalicylaldimino-methyl)ethane] |  |  |  |  |  |  |  |  |  |  |  |  |  |  |  |  |  |  | heart uptake ([1]; 1 min postinjection): 0.97 % dose/whole heart; heart uptake ([1]; 30 min postinjection): 0.23 % dose/whole heart; heart uptake ([1]; 60 min postinjection): 0.14 % dose/whole heart |
| CCC1(CC)C[NH+]2CC3(CCCCC3)[NH+]3CC(CC)(CC)[S][67Ga-]23[S]1 (stereo not drawn) [[^67 Ga]BAT-TECH] | 0.02 ± 0.004 % dose/organ | 1.68 % dose/organ and 1.68 ± 0.12 % dose/organ | 6.94 ± 0.31 % dose/organ | 21.52 ± 1.11 % dose/organ | 2.07 ± 0.07 % dose/organ | 5.44 ± 1.65 % dose/organ | 0.50 ± 0.06 % dose/organ | 10.18 ± 0.30 % dose/organ | 13.89 ± 3.21 % dose/organ | 0.01 ± 0.001 % dose/organ | 0.52 ± 0.08 % dose/organ | 2.00 ± 0.10 % dose/organ | 33.54 ± 4.42 % dose/organ | 0.46 ± 0.09 % dose/organ | 7.56 ± 1.60 % dose/organ | 0.15 ± 0.009 % dose/organ | 3.58 ± 0.08 % dose/organ | 21.14 ± 2.18 % dose/organ | lipid solubility [2]: very lipid-soluble; blood and lung washout ([3]; in words): rapid blood and lung washout; myocardial uptake ([3]; in words): fast myocardial uptake; uptake in the liver, washout ([3]; iv): significant uptake in the liver which does not wash out with time; heart uptake ([3]; iv, 30 min): 0.52 % dose/g; Biodistribution, Brain ([3]; iv, 60 min): 0.01 ± 0.002 % dose/organ; Biodistribution, Heart ([3]; iv, 60 min): 0.26 ± 0.02 % dose/organ; Biodistribution, Kidney ([3]; iv, 60 min): 1.06 ± 0.14 % dose/organ; Biodistribution, Liver ([3]; iv, 60 min): 46.41 ± 2.39 % dose/organ; Biodistribution, Lung ([3]; iv, 60 min): 0.37 ± 0.009 % dose/organ; Biodistribution, Skin ([3]; iv, 60 min): 5.78 ± 0.92 % dose/organ; Biodistribution, Spleen ([3]; iv, 60 min): 0.11 ± 0.001 % dose/organ; Biodistribution, Blood ([3]; iv, 60 min): 4.54 ± 1.10 % dose/organ; Biodistribution, Muscle ([3]; iv, 60 min): 10.79 ± 1.85 % dose/organ; heart uptake ([3]; iv, 1 hour): 0.26 % dose/g; heart to blood ratio [3, 7]: comparable to or superior to those reported for [^68 Ga](5- MeOSal)3 TAME; heart to lung ratio [3, 7]: comparable to or superior to those reported for [^68 Ga](5- MeOSal)3 TAME; partition coefficient (1-octanol/buffer) ([4]; pH 7): 147±5.18; partition coefficient (1-octanol/buffer) ([4]; pH 7.4): 72.3±3.47 |
| CNC1=NN=CC(C)=NN=C(NC)[S][Cu][S]1 [Cu(PTSM), copper-labeled pyruvaldehyde bis(N4-methylthiosemicarbazone)] |  |  |  |  |  |  |  |  |  |  |  |  |  |  |  |  |  |  | intracellular stability ([5]; after interacting with sulfurhydryl groups): decomposes intracellularly; passage through the cell membrane / blood-brain barrier ([5]; after intravenous injection): passes through the cell membrane, including the intact blood-brain barrier; lipid solubility [6]: neutral and lipid-soluble |
| CC1(C)C[NH+]2CC(c3ccccc3O)[NH+]3CC(C)(C)[S][67Ga-]23[S]1 (stereo not drawn) [[^67 Ga]2,9-Dimethyl-2,9-Dimercapto-5-(2-hydroxyphenyl)-4,7-diazadecane] | .026 ± .002 % dose/organ | .940 ± .094 % dose/organ | 5.677 ± .266 % dose/organ | 20.93 ± 4.13 % dose/organ | 1.236 ± .155 % dose/organ | .137 ± .023 % dose/organ | .431 ± .085 % dose/organ | 11.240 ± .724 % dose/organ | 14.392 ± 2.91 % dose/organ | .019 ± .001 % dose/organ | .380 ± .039 % dose/organ | 1.204 ± .080 % dose/organ | 25.31 ± 1.09 % dose/organ | .690 ± .481 % dose/organ | .079 ± .004 % dose/organ | .155 ± .022 % dose/organ | 2.823 ± .182 % dose/organ | 17.49 ± 1.37 % dose/organ | Brain/Blood ([3]; iv, 2 min): .028; Brain/Blood ([3]; iv, 30 min): .073 |
